# Laboratory results: patent publication US11612604B2, “Methods of treating cancer with PLK4 inhibitors” (LUDWIG INSTITUTE FOR CANCER RESEARCH LTD, priority 2017, dated 2023)
# Molecular target: T1, PLK4 (Homo sapiens, UniProt O00444)
# T1 sequence (O00444 1-970): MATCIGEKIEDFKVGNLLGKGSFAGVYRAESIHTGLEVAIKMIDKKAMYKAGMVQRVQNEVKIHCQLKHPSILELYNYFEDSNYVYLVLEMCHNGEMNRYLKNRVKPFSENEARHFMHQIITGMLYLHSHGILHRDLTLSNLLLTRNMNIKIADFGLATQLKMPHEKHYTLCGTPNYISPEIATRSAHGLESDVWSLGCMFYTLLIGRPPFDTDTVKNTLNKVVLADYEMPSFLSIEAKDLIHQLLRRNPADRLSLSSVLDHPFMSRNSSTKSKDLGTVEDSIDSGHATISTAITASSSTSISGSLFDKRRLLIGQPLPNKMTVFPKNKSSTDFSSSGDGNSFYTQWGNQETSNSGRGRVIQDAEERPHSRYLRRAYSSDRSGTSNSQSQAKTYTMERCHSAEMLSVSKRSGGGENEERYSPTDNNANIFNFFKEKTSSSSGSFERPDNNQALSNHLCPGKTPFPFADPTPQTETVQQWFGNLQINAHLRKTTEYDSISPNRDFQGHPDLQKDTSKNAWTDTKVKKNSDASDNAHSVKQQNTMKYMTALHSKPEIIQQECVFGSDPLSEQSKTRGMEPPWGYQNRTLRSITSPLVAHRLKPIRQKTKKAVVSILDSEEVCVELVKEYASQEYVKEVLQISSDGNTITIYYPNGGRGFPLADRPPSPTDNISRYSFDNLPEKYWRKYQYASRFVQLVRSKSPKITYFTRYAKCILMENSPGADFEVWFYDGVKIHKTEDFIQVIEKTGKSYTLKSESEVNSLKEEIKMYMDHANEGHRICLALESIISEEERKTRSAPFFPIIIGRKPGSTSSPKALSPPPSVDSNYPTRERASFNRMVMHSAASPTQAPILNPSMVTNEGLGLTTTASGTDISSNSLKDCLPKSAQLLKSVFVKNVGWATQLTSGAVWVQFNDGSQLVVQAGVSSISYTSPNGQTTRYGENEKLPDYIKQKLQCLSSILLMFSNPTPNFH
# Experiment: Activity (IC50) of the Table 1 compounds as PLK4 inhibitors
# Type: biochemical
# Details: Table 1, IC50 class
row,Compound,IC50 [nM]
1,COc1c(Nc2cc(C)[nH]n2)nc(Sc2ccc(S(=O)(=O)Cc3cccc([N+](=O)[O-])c3F)cc2F)nc1N1CCNCC1,< 100
2,COc1c(Nc2cc(C)[nH]n2)nc(Sc2ccc(S(=O)(=O)Cc3cccc(C#N)c3F)cc2F)nc1N1CCOCC1,< 100
3,COc1c(Nc2cc(C)[nH]n2)nc(Sc2ccc(NC(C)=O)cc2)nc1N1CCN(CCNC(=N)N)CC1,< 100
4,CNCCN1CCN(c2nc(Sc3ccc(NC(C)=O)cc3)nc(Nc3cc(C)[nH]n3)c2OC)CC1,< 100
5,COC(=O)c1ccc(Sc2nc(Nc3cc(C)[nH]n3)c(OC)c(N3CCN(CCN(C)C)CC3)n2)cc1,< 100
6,COc1c(Nc2cc(C)[nH]n2)nc(Sc2ccc(S(=O)(=O)Cc3cccc([N+](=O)[O-])c3F)cc2F)nc1N1CCCCC1 [drawing 376],< 100
7,COc1c(Nc2cc(C)[nH]n2)nc(Sc2ccc(NC(C)=O)cc2)nc1N1CCC(F)(F)CC1,< 100
8,COc1c(Nc2cc(C)[nH]n2)nc(Sc2ccc(S(=O)(=O)Cc3cccc(NC(C)=O)c3)cc2)nc1N1CCN(CCN(C)C)CC1,< 100
9,COc1c(Nc2cc(C)[nH]n2)nc(Sc2ccc(NC(C)=O)cc2)nc1N1CCC(CC(N)=O)CC1,< 100
10,COc1c(Nc2cc(C)[nH]n2)nc(Sc2ccc(NC(C)=O)cc2)nc1C1=CCN(C)CC1,< 100
11,COC(=O)CC1CCN(c2nc(Sc3ccc(S(=O)(=O)C(C)(C)c4cccc([N+](=O)[O-])c4F)cc3F)nc(Nc3cc(C)[nH]n3)c2OC)CC1,< 100
12,CCOc1c(Nc2cc(C)[nH]n2)nc(Sc2ccc(NC(=O)C3CC3)cc2)nc1N(C)C,< 100
13,COc1c(Nc2cc(C)[nH]n2)nc(Sc2ccc(NC(C)=O)cc2)nc1N1CCCC1,< 100
14,COc1c(Nc2cc(C)[nH]n2)nc(Sc2ccc(S(=O)(=O)Cc3cccc(C#N)c3F)cc2F)nc1N1CCN(CCN(C)C)CC1,< 100
15,COc1c(Nc2cc(C)[nH]n2)nc(Sc2ccc(S(=O)(=O)Cc3ccccc3)cc2)nc1N1CCOC[C@@H]1C,< 100
16,CCOc1c(Nc2c[nH]c(C)c2)nc(Sc2ccc(NC(=O)C3CCCC3)cc2)nc1N1CCN(C(=O)CCOC)CC1,100 to 1000
17,COc1c(Nc2cc(C)[nH]n2)nc(Sc2ccc(S(=O)(=O)C(C)(C)c3cccc([N+](=O)[O-])c3F)cc2F)nc1N1CCC(CC(=O)N(C)C)CC1,< 100
18,COc1c(Nc2cc(C)[nH]n2)nc(Sc2ccc(S(=O)(=O)CCN(C)C)cc2)nc1N1CCN(CCN(C)C)CC1,< 100
19,CC(=O)Nc1ccc(Sc2nc(Nc3cc(C)[nH]n3)c(C)c(N3CCN(CCN(C)C)CC3)n2)cc1,< 100
20,COc1c(Nc2cc(C)[nH]n2)nc(Sc2ccc(S(=O)(=O)Cc3ccccc3C#N)cc2)nc1N1CCN(CCN(C)C)CC1,< 100
21,COc1c(Nc2cc(C)[nH]n2)nc(Sc2ccc(S(=O)(=O)c3cccc([N+](=O)[O-])c3)cc2F)nc1N1CCOCC1,< 100
22,COc1c(Nc2cc(C)[nH]n2)nc(Sc2ccc(S(=O)(=O)Cc3ccccc3[N+](=O)[O-])cc2)nc1N1CCN(CCN(C)C)CC1,< 100
23,COc1c(Nc2cc(C)[nH]n2)nc(Sc2ccc(S(=O)(=O)Cc3cccc(C#N)c3)cc2)nc1N1CCN(CCN(C)C)CC1,< 100
24,COc1c(Nc2cc(C)[nH]n2)nc(Sc2ccc(S(=O)(=O)Cc3ccc(F)cc3)cc2)nc1N1CCN(CCN(C)C)CC1,< 100
25,COc1c(Nc2cc(C)[nH]n2)nc(Sc2ccc(S(=O)(=O)C(C)(C)c3cccc([N+](=O)[O-])c3F)cc2F)nc1N1CCC(NC(C)=O)CC1,< 100
26,COc1c(Nc2cc(C)[nH]n2)nc(Sc2ccc(S(=O)(=O)Cc3cccc([N+](=O)[O-])c3F)cc2)nc1N1CCC(O)CC1,< 100
27,COc1c(Nc2cc(C)[nH]n2)nc(Sc2ccc(NC(=O)C3CC3)cc2)nc1NC(C)C,< 100
28,COc1c(Nc2cc(C)[nH]n2)nc(Sc2ccc(S(=O)(=O)Cc3cccc(C(F)(F)F)c3)cc2)nc1N1CCN(CCN(C)C)CC1,< 100

# Now from value to compound:
row,IC50 [nM],Compound
1,< 100,COc1c(Nc2cc(C)[nH]n2)nc(Sc2ccc(NC(C)=O)cc2)nc1N1CCN(C(=N)N)CC1
2,< 100,CC(=O)Nc1ccc(Sc2nc(Nc3cc(C)[nH]n3)c(C)c(N3CC=C(F)CC3)n2)cc1
3,< 100,COc1c(Nc2cc(C)[nH]n2)nc(Sc2ccc(S(=O)(=O)Cc3ncc[nH]3)cc2)nc1N1CCN(CCN(C)C)CC1
4,< 100,Cc1cc(Nc2nc(Sc3ccc(NC(=O)C4CCC4)cc3)nc(N3CCN(C)CC3)c2C)n[nH]1
5,< 100,COc1c(Nc2cc(C)[nH]n2)nc(Sc2ccc(S(=O)(=O)Cc3ccccc3)cc2)nc1N1CCN(CCN2CCN(C)CC2)CC1
6,< 100,CNCC(=O)C1CCN(c2nc(Sc3ccc(NC(C)=O)cc3)nc(Nc3cc(C)[nH]n3)c2OC)CC1
7,< 100,Cc1cc(Nc2nc(Sc3ccccc3)nc(N3CCC(O)CC3)c2C)n[nH]1
8,< 100,COc1c(Nc2cc(C)[nH]n2)nc(Sc2ccc(NC(C)=O)cc2)nc1N1CCN(C(N)=O)CC1
9,< 100,COc1c(Nc2cc(C)[nH]n2)nc(Sc2ccc(S(=O)(=O)Cc3c(F)c(F)cc(F)c3F)cc2F)nc1N1CCOCC1
10,< 100,COc1c(Nc2cc(C)[nH]n2)nc(Sc2ccc(S(=O)(=O)Cc3cccc(C(=O)O)c3)cc2)nc1N1CCN(CCN(C)C)CC1
11,< 100,COc1c(Nc2cc(C)[nH]n2)nc(Sc2ccc(NC(=O)C3CC3)cc2)nc1N1CCN(CC2CC2)CC1
12,< 100,COc1c(Nc2cc(C)[nH]n2)nc(Sc2ccc(S(=O)(=O)Cc3cccc(F)c3F)cc2F)nc1N1CCCCC1
13,< 100,COc1c(Nc2cc(C)[nH]n2)nc(Sc2ccc(S(=O)(=O)C(F)c3cccc([N+](=O)[O-])c3F)cc2F)nc1N1CCN(CCN(C)C)CC1 (centres unmarked)
14,< 100,CCS(=O)(=O)c1ccc(Sc2nc(Nc3cc(C)[nH]n3)c(OC)c(C3CCN(CCN(C)C)CC3)n2)cc1
15,< 100,COc1c(Nc2cc(C)[nH]n2)nc(Sc2ccc(S(=O)(=O)Cc3cccc([N+](=O)[O-])c3)cc2)nc1N1CCOCC1
16,< 100,CNc1nc(Sc2ccc(NC(=O)C3CC3)cc2)nc(Nc2cc(C)[nH]n2)c1C
17,< 100,COc1c(Nc2cc(C)[nH]n2)nc(Sc2ccc(S(=O)(=O)C(C)(C)c3c(F)c(F)cc(F)c3F)cc2F)nc1N1CCC(CCNC(C)=O)CC1
18,< 100,COc1c(Nc2cc(C)[nH]n2)nc(Sc2ccc(S(=O)(=O)C(C)(C)c3cc(F)cc(Cl)c3F)cc2F)nc1N1CCC(CCN(C)C)CC1
19,< 100,COc1c(Nc2cc(C)[nH]n2)nc(Sc2ccc(S(=O)(=O)C(C)(C)c3cccc([N+](=O)[O-])c3F)cc2F)nc1N1CCN(C(C)=O)CC1

row,IC50 [nM],Compound
1,< 100,COc1c(Nc2cc(C)[nH]n2)nc(Sc2ccc(NC(C)=O)cc2)nc1N1CCC(O)C1 (centres unmarked)
2,< 100,CC(=O)Nc1ccc(Sc2nc(Cc3cc(C)[nH]n3)c(C)c(NC3CCN(C)CC3)n2)cc1
3,< 100,Cc1cc(Nc2nc(Sc3ccc(N)cc3)nc(N3CCCCC3)c2C)n[nH]1
4,< 100,Cc1cc(Nc2nc(Sc3ccc(N(C)C)cc3)nc(N3CCCCC3)c2C)n[nH]1
5,< 100,COc1c(Nc2cc(C)[nH]n2)nc(Sc2ccc(S(=O)(=O)Cc3ccccc3F)cc2)nc1N1CCN(CCN(C)C)CC1
6,< 100,COc1c(Nc2cc(C)[nH]n2)nc(Sc2ccc(S(=O)(=O)Cc3ccccc3)cc2)nc1N1CCN(CCN2C3CCCC2CC3)CC1
7,< 100,COCCN1CCN(c2nc(Sc3ccc(NC(=O)C4CCCC4)cc3)nc(Nc3cc(C)[nH]n3)c2C)CC1
8,< 100,COc1c(Nc2cc(C)[nH]n2)nc(Sc2ccc(S(=O)(=O)C(C)(C)c3cccc([N+](=O)[O-])c3F)cc2F)nc1N1CCC(CC(N)=O)CC1
9,< 100,COc1c(Nc2cc(C)[nH]n2)nc(Sc2ccc(S(=O)(=O)Cc3cccc([N+](=O)[O-])c3)cc2)nc1N1C2CCC1COC2
10,< 100,COC(=O)Nc1ccc(Sc2nc(Nc3cc(C)[nH]n3)c(C)c(N3CCCCC3)n2)cc1
11,< 100,COc1c(Nc2cc(C)[nH]n2)nc(Sc2ccc(S(=O)(=O)Cc3ccccc3C(=O)N(C)C)cc2)nc1N1CCN(CCN(C)C)CC1
12,< 100,COc1c(Nc2cc(C)[nH]n2)nc(Sc2ccc(S(=O)(=O)C(C)(C)c3cccc(Cl)c3F)cc2F)nc1N1CCN(CCN(C)C)CC1
13,< 100,COc1c(Nc2cc(C)[nH]n2)nc(Sc2ccc(S(=O)(=O)C3(c4cccc([N+](=O)[O-])c4F)CC3)cc2F)nc1N1CCC(C(=O)N(C)C)CC1
14,< 100,COc1c(Nc2cc(C)[nH]n2)nc(Sc2ccc(S(=O)(=O)C3(c4cccc([N+](=O)[O-])c4F)CC3)cc2F)nc1N1CCC(NC(C)=O)CC1
15,< 100,CCN1CCN(c2nc(Sc3ccc(NC(C)=O)cc3)nc(Nc3cc(C)[nH]n3)c2OC)CC1
16,< 100,COc1c(Nc2cc(C)[nH]n2)nc(Sc2ccc(NC(C)=O)cc2)nc1N1CCN(CCN2CCNCC2)CC1
17,< 100,COc1c(Nc2cc(C)[nH]n2)nc(Sc2ccc(NC(C)=O)cc2)nc1N1CCN(CC(=O)C2CCCCC2)CC1
18,< 100,COc1c(Nc2cc(C)[nH]n2)nc(Sc2ccc(NC(C)=O)cc2)nc1N1CCN(CCN2C3CCCC2CC3)CC1
